These results are taken from patent US8952048B2, “Treatment of immune disorders using kainate receptor antagonists” (Virginia Commonwealth University, priority 2010, dated 2015).

Molecules are shown by their SMILES. “Also recorded” adds a separate entry of the source.

For assay [1], the system named is RPMI8866 cells. The assay is described as follows: Soluble CD23 release assay in RPMI8866 cells. It counts as cell-based, human. The following applies: for effect on increase in sCD23 release caused by KAR stimulation: 50 μM antagonist 1 hr prior to 5 mM KA or Glu; for effect on baseline sCD23 release: 50 μM antagonist, no KA or Glu. The method, then: For these studies, the CD23+ human B cell line RPMI8866 was grown in the presence or absence of 5 mM KA or Glu for 24 hours in CDMEM10 at a concentration of 1×10^6 cells/mL. For antagonist studies, prior to the addition of KA or Glu cells were pre-treated with 50 μM vehicle (DMSO), NBQX, NS 102, or TPM for one hour. After incubation, cell free supernatants were harvested and sCD23 levels determined by ELISA. […] Forty-eight hours later cell free supernatants were harvested for ELISA.
(§1) To determine the effect of ADAM10 inhibition on Ig production, purified human B cells were cultured with 10 ng/mL IL-4, 1 μg/mL anti-CD40, and 200 ng/mL IL-21 in complete culture media in the presence of DMSO as vehicle control or 10 μM ADAM10 specific inhibitor. Five days later, cell free supernatants were harvested for soluble CD23 release and fourteen days later, cell free supernatants were analyzed for Ig production. ELISAs. Human sCD23 ELISA was measured using a standard sandwich ELISA approach, using a mouse anti-CD23 (Clone BU38) coating antibody and sheep anti-CD23 (both from The Binding Site Birmingham, UK). Detection is performed with a goat anti-sheep IgG tagged with HRP (Southern Biotech Birmingham, Ala.). Determination of human IgE levels utilized a monoclonal mouse anti-human IgE antibody (clone 4.15) as a capture. Samples and standards were detected using a rabbit anti-human IgE-HRP (Southern Biotech) diluted in PBS/10% FBS. Human IgG or IgM were detected using a goat anti-human IgG or IgM followed by detection with a goat anti-human IgG or IgM tagged with HRP (All from Southern Biotech). Standards for the IgG and IgM ELISAs were purchased from Sigma. IgE standards were purified from JW8 hybridoma cells as previously described (Caven et al., 2005a). All assays utilized TMB substrate (BD Pharmingen San Diego, Calif.) and the reactions were stopped with 0.18M H2SO4. Plates are read at a wavelength of 450 nm on a SpectraMax 250 and data analyzed using SOFTmax PRO 3.1.2 software (Molecular Devices, Los Angeles, Calif.).

The test system of assay [2] is primary B cells. Kind of assay: ADAM10 mRNA by qPCR in primary B cells. The class given is cell-based, human. As to conditions: 5 mM KA or glutamate, 30 minutes; normalized to beta-actin. The method, then: Alternatively when whole PBMC was used, buffy coats were obtained from the Virginia Blood Service Center (Richmond, Va.). PBMC were isolated by Ficoll gradient density centrifugation. All human studies research was performed in accordance to the Virginia Commonwealth University Institution Review Board per approved protocols. RT-PCR and qPCR. RNA was isolated via standard Trizol (Invitrogen) purification protocol and the Access Quick RT-PCR kit (Promega, Madison Wis.) was used with gene specific primers to examine for the presence of kainate receptor subunits and their transcript variants. Primers were designed using VectorNTI software (Invitrogen). Ready-made Primers® for G3PDH and all custom made primers for all sequences were synthesized by Integrated DNA Technologies (Coralville, Iowa). qPCR experiments were performed by the nucleic acid core in the ABI Prism® 7900 Sequence Detection System (Applied Biosystems, Foster City, Calif.) using the TaqMan® One Step PCR Master Mix Reagents Kit. All the samples were tested in triplicate using the following conditions: 48° C./30 min; 95° C./10 min; and 40 cycles of 95° C./15 sec and 60° C./1 min. The cycle threshold was determined to provide the optimal standard curve values (0.98 to 1.0). The probes and primers for ADAM10 (#Hs00153853_ml) were purchased from ABI. […] Relative ADAM10 mRNA is determined as a relative ratio based upon beta-actin.
(Real-time PCR tracks product formation cycle by cycle.)

In assay [3] the test system is primary human B cells. The assay is described as follows: Immunoglobulin production by primary human B cells (ELISA, 14 days). The class given is cell-based. As to conditions: for amount of IgE produced / effect on glutamate enhancement of IgG production: 14 days; for effect on glutamate enhancement of IgG production / effect on glutamate mediated increase in IgE production: 10 μM antagonist before culture; for effect on glutamate enhancement of IgG production: 5 mM glutamate. As for the experimental part: (§2) Primary B cells or PBMC were cultured in the presence of 10 ng/mL IL-4 and 1 μg/mL anti-CD40 in complete culture media in the presence or absence of 5 mM KA or 5 mM Glu. When indicated, 200 ng/mL IL-21 was also added. For antagonism studies, prior to culture primary cells were treated with 10 μM vehicle (DMSO), NBQX, NS102, or TPM. After 14 days of culture, cell free supernatants were analyzed via ELISA for Ig levels. As cells are grown at various densities, line graphs represent Ig production as compared to cell density.
as §1
(An ELISA detects its analyte on a solid surface through an enzyme-linked reagent.)

For assay [4], the system named is primary human B cells. The assay is described as follows: [3H]-thymidine proliferation assay, primary B cells. The class given is cell-based. As for the experimental part: (§3) When PBMC is used the cell concentration is 100,000 cells/well. […] After 96 hours of growth, a 24 hr pulse [H^3]-thymidine (Perkin Elmer) was used. Plates were then harvested using a Filtermate cell harvester onto GFC plates. Assays were read using a Topcount Plate Counter (Perkin Elmer, Waltham, Mass.).

The test system of assay [5] is Human PBMC. Kind of assay: Immunoglobulin production in PBMC cultures (ELISA, 14 days). The class given is cell-based. The method, then:
as §2, §1

For assay [6], the system named is B cells from SLE patients. The assay is described as follows: SLE vs. normal donor B cell activity in the presence of antagonist. The following applies: Example 3, written in present tense. The class given is cell-based, human. The source says:
Peripheral blood from both SLE patients and normal donors is obtained. Presence of KARS: Specific KAR primers and Western protocols are used to analyze mRNA and protein expression, respectively, in cultured B cells from SLE patients. Flow cytometry is used to confirm cell surface expression. Comparison of the expression of KARs on B cells from normal vs. SLE patients, the presence of KARs on SLE patient B cells is confirmed.
B cells isolated from both donor populations are stimulated with anti-CD40 in the presence or absence of KAR activation to induce cellular proliferation. Differences among both groups both with and without KAR stimulation are determined. Proliferation is measured via H^3 thymidine incorporation as well as cell cycle divisions via CFSE dilution analysis.
B cells isolated from both populations are put in culture in the presence of IL-4 and anti-CD40, the two signals required for Ig production, in the presence or absence of KAR activation. After 14 days of culture, cell free supernatants are analyzed for total IgM, IgG, and IgE via ELISA. Furthermore, specificity of human antibodies is determined by employing commercially available human anti-nuclear antibody (ANA), anti-snRNP/Smith, and anti-dsDNA ELISA kits.
SLE vs. normal donor B cell activity is compared in the presence of at least one antagonist such as NS 102.

Assay [7] has as its system GluK2 containing KARs. As to conditions: Verdoorn et al., 1994; cited from earlier work.
Assay [8] has as its system Human PBMC. Kind of assay: Proliferation assay, PBMC. The class given is cell-based. As to conditions: addition of glutamate. The method, then:
as §3

Assay [9] has as its system B cells from KAR KO mice. Kind of assay: In vitro culture of B cells from KAR KO mice with glutamate. As to conditions: in the presence of glutamate; data not shown. It counts as cell-based, mouse.
Setting [10] is: IL-4, anti-CD40, IL-21, 5 mM glutamate, CDMEM-10, 14 days.
[11] abbreviates: 10 μM pretreatment 1 hour before glutamate.
The mark [12] stands for this setting: anti-CD40, IL-4, IL-21, glutamate.

Turning to `C=C(C)[C@H]1CN[C@H](C(=O)O)[C@H]1CC(=O)O` [KA, kainic acid], the “amount of sCD23 released following KAR activation” value in [1] (5 mM KA or Glu, 24 hours, CDMEM10) is recorded as “significant elevation”. For the same compound, the “ADAM10 mRNA levels” value in assay [2] is given as “significant increase”. In addition, the “amount of IgE produced” value in [3] (IL-4 and anti-CD40, CRPMI-10, 5 mM KA or Glu) is “strong and statistically significant increase”.
As for `NS(=O)(=O)c1cccc2c1c([N+](=O)[O-])cc1nc(O)c(O)nc12` [NBQX], in [1] (24 hours), the “effect on increase in sCD23 release caused by KAR stimulation” value (“effect on increase” for short) is on record as “no change is observed”. In addition, the “effect on baseline sCD23 release” value in assay [1] is given as “none of the antagonists have any effect”. For the same compound, the “effect on glutamate enhancement of IgG production” value in assay [3] is “unaffected”. In addition, the “effect on glutamate mediated increase in IgE production” value (“effect on glutamate mediated increase” for short) in assay [3] (setting [10]) is on record as “no effect”.
In the case of `O=C1Nc2c(cc([N+](=O)[O-])c3c2CCCC3)C1=NO` [NS102, 5-Nitro-6,7,8,9-tetrahydro-1H-benzo[g]indole-2,3-dione 3-oxime], the “effect on increase” value in assay [1] (24 hours) was “could prevent the significant increase”. In addition, in [1], the “effect on baseline sCD23 release” value is “none of the antagonists have any effect”. In addition, in [3], the “effect on glutamate enhancement of IgG production” value is “blocked”. For the same compound, the “effect on glutamate mediated increase” value in assay [3] (setting [10]) was “almost completely blocks”. Besides, the “effect on glutamate mediated increase” value in [3] (IL-4, anti-CD40, IL-21, 5 mM glutamate, CDMEM-10, 14 days, listed as NS-102) is on record as “dramatically reduced”. In addition, in assay [4] (10 μM pretreatment 1 hour before 5 mM glutamate), the “effect on glutamate-induced increase in proliferation” value was “prevented”. Besides, in [5] (setting [11]), the “effect on glutamate increase in IgE production” value was “strongly blocked” and the “effect on glutamate increase in IgG production” value is listed as “strongly blocked”. In assay [6], the “B cell hyperactivity in SLE patients” value is listed as “overcomes the B cell hyperactivity”. Besides, the “selectivity of KAR antagonism” value in assay [7] was “selectively antagonizes”.
In the case of `CC1(C)O[C@@H]2[C@@H](CO[C@@]3(COS(N)(=O)=O)OC(C)(C)O[C@@H]23)O1` [TPM, topiramate], the “effect on increase” value in [1] (24 hours) is reported as “no change is observed”. For the same compound, the “effect on baseline sCD23 release” value in assay [1] is recorded as “none of the antagonists have any effect”. For the same compound, the “effect on glutamate mediated increase” value in assay [3] (setting [10]) is listed as “did not influence IgE production”.
Consider `N[C@@H](CCC(=O)O)C(=O)O` [glutamate, L-glutamic acid], for which, in assay [2], the “ADAM10 mRNA levels” value is “significant increase”. Moreover, in assay [3] (setting [10]), the “total IgG production” value was “Enhancement in IgG production was seen in all but the highest density cultures” and the “total IgM levels” value is “not influenced”. For the same compound, in assay [3] (IL-4, anti-CD40 plus IL-21, 5 mM glutamate), the “amount of IgE produced” value was “much more IgE; also recorded: pronounced increase”. Also, in assay [4] (5 mM glutamate, IL-4, anti-CD40, IL-21, 96 hours plus 24 hr pulse), the cell proliferation entry is listed as “significant increase in proliferation”. Moreover, in assay [5] (setting [12]), the IgE synthesis result is on record as “very strong enhancement”, the IgM production result was “not significantly influenced” and the “total IgG production” value is listed as “IgG enhancement was seen”. Moreover, the proliferation result in assay [8] is listed as “also affected”. For the same compound, in assay [9], the Ig synthesis result was “did not show any enhanced”, the proliferation entry is “did not show any enhanced” and the sCD23 release entry is listed as “did not show any enhanced”.
